Columns and labels:
lipoamide = compound: NC(=O)CCCCC1CCSS1 [lipoamide]; experiment: thermal stability z-score vs DMSO; higher = more thermally stabilized by treatment; conditions: HeLa, lipoamide concentration 100 µM
Description: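 Cellular thermal proteome profiling in HeLa cells. Cells were treated with 100 µM lipoamide for 1 h, with or without 1 mM arsenate for a further 1 h, then heated to ten temperatures (37-66.3 °C), and soluble protein was quantified by TMT mass spectrometry relative to 0.1% DMSO controls. The thermal stability score (sum of log2 fold changes minus the abundance score) was transformed to a z-score; mean of n = 3 experiments.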

potassium arsenate = compound: O=[As]([O-])(O)O.[K+] [potassium arsenate]; experiment: as above; conditions: HeLa; arsenate concentration 1 mM
Description: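 Cellular thermal proteome profiling in HeLa cells treated with 1 mM arsenate for 1 h (DMSO pretreatment), heated to ten temperatures (37-66.3 °C). Soluble protein was quantified by TMT mass spectrometry relative to DMSO controls; the thermal stability score was transformed to a z-score; mean of n = 3 experiments.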

[1] = arsenate co-treatment: 1 mM arsenate 1 h
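Note: each temperature applied for 3 min, abundance score taken as mean log2 fold change at the two lowest temperatures, z-score obtained by mean subtraction and division by SD.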

Chain of UniProt P61106 (P61106 whole entry, looked up): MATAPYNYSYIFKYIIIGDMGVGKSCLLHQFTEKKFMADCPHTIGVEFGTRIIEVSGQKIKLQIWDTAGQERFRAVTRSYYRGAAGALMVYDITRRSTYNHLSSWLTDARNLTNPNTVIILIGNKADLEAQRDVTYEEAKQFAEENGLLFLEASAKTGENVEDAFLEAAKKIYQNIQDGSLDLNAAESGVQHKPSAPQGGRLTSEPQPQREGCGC
Chain of UniProt Q86X27 (Q86X27 whole entry): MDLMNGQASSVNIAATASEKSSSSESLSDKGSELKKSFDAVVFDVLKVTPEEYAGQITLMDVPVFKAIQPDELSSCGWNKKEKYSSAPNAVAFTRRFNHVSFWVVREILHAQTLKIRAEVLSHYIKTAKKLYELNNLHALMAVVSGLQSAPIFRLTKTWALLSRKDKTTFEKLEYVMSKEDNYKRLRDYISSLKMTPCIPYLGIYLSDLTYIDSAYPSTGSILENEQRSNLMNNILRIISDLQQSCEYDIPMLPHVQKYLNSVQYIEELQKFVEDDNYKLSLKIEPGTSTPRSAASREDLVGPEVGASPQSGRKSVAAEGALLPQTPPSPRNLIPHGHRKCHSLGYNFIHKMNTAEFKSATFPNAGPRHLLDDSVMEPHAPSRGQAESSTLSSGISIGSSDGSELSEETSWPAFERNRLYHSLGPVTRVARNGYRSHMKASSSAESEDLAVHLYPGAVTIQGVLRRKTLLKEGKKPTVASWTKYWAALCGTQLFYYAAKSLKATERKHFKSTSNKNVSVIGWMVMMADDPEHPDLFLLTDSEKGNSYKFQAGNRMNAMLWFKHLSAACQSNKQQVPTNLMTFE
Chain of UniProt Q5JSH3 (Q5JSH3 whole entry): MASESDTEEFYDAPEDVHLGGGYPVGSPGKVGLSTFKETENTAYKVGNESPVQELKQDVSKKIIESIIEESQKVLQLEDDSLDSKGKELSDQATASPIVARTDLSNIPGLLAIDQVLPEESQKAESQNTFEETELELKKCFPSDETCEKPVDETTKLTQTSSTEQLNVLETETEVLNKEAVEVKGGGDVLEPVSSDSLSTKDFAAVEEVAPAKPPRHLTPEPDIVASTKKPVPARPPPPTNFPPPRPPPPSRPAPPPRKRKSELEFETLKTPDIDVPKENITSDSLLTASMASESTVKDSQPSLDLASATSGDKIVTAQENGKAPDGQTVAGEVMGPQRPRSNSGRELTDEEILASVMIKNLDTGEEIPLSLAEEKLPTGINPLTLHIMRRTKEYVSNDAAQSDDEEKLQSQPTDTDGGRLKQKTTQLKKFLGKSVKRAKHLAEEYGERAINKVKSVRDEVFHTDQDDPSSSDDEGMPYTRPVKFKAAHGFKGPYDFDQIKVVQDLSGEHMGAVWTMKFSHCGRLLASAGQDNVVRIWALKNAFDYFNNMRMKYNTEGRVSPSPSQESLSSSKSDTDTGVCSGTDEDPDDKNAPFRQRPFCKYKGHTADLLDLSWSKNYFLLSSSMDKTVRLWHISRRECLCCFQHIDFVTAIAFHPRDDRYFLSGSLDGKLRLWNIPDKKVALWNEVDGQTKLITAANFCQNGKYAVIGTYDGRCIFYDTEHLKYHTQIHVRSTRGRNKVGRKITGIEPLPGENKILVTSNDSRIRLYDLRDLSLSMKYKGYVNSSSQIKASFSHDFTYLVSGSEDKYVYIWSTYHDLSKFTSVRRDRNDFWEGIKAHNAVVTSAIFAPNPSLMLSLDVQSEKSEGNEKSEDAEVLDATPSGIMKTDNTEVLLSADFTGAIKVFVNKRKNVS
Chain of UniProt O75150 (O75150 whole entry): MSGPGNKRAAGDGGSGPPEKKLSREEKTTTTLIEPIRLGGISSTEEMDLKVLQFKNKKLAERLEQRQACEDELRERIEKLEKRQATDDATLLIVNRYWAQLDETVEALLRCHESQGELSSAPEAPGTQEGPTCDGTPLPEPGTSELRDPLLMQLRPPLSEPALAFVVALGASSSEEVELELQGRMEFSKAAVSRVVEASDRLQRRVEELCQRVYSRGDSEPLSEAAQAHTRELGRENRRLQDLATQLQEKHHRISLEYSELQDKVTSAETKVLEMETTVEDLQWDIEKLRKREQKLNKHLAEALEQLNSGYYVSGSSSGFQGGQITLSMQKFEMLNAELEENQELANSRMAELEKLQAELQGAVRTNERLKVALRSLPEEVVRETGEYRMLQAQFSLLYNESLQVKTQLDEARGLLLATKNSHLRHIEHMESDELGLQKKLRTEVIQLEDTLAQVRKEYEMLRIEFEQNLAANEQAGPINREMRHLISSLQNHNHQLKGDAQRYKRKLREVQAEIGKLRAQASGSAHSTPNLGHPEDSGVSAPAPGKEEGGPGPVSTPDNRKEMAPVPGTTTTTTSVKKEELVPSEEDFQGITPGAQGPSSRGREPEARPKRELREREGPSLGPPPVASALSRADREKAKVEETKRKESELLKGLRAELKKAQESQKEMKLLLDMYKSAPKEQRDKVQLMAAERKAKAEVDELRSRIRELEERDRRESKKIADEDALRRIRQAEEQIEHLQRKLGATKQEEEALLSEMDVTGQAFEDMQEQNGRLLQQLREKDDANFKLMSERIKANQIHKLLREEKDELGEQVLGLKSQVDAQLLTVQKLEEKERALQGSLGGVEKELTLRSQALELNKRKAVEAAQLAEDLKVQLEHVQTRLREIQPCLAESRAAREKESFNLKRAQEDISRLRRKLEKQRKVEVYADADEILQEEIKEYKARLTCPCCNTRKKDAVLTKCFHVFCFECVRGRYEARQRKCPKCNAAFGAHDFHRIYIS
Chain of UniProt O43808 (O43808 whole entry): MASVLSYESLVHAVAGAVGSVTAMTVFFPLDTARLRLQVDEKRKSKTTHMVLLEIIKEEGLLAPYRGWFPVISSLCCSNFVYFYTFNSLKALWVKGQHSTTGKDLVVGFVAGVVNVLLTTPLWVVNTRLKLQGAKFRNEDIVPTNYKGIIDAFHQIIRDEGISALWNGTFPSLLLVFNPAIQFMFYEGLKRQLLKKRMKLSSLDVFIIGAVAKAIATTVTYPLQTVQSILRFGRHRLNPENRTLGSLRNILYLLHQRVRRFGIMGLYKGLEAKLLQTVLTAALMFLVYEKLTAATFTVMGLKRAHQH
Chain of UniProt P30530 (P30530 whole entry): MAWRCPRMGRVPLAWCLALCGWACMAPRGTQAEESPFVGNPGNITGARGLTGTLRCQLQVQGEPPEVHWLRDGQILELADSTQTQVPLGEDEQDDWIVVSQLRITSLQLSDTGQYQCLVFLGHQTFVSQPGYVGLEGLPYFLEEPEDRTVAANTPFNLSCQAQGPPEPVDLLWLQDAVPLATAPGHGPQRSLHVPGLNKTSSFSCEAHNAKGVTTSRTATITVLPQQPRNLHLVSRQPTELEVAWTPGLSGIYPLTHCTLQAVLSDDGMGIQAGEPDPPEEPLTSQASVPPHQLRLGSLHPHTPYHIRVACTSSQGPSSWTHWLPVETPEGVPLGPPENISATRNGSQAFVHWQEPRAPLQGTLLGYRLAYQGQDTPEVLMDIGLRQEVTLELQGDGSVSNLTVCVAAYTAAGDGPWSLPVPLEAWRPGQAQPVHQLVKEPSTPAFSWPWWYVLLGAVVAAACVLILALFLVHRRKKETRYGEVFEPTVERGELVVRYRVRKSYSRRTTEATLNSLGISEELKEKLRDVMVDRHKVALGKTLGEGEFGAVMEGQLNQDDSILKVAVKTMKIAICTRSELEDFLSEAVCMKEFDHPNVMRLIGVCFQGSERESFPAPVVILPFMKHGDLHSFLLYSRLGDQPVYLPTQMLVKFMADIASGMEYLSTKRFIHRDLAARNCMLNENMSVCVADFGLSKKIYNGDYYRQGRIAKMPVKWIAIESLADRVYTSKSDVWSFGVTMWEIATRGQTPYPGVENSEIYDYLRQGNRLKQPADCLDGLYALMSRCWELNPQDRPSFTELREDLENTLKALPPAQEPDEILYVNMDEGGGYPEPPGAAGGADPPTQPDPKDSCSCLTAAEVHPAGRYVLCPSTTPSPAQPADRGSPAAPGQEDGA
Chain of UniProt Q9H6B4 (Q9H6B4 whole entry): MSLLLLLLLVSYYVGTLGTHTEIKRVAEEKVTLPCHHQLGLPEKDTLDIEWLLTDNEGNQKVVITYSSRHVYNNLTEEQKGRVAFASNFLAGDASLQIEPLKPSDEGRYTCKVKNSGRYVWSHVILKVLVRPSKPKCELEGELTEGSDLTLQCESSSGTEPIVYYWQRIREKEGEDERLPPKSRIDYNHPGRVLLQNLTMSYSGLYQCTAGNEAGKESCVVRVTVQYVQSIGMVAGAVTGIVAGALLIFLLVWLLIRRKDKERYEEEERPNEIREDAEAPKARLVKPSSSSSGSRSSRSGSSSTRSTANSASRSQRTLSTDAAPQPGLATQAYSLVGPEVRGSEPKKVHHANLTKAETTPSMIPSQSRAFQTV
Chain of UniProt Q9Y287 (Q9Y287 whole entry, looked up): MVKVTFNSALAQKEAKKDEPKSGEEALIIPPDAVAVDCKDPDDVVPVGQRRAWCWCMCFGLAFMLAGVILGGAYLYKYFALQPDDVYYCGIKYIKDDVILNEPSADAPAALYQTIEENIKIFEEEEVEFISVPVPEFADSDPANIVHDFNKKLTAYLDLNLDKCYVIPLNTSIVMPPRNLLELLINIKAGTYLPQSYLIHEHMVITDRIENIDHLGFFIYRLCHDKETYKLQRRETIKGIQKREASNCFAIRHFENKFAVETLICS
Chain of UniProt Q9Y5T4 (Q9Y5T4 whole entry): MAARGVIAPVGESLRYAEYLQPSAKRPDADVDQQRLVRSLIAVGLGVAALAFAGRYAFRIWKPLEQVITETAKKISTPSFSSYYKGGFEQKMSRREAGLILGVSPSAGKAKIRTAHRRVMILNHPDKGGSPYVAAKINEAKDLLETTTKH
Chain of UniProt P49459 (P49459 whole entry): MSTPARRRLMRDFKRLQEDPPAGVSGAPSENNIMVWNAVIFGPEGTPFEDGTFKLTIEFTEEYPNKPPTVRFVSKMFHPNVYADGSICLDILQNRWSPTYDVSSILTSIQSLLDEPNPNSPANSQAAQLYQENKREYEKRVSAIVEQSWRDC

Target	thermal stability z-score (lipoamide; [1])	thermal stability z-score (lipoamide; arsenate co-treatment: none)	thermal stability z-score (potassium arsenate)
NSUN6 (UniProt Q8TEA1)	-0.141	-0.366	-0.526
HGS (UniProt O14964)	0.268	0.638	0.102
POM121C (UniProt A8CG34)	1.24	-0.678	1.38
INPPL1 (UniProt O15357)	-0.527	-0.154	0.0386
RPS3 (UniProt P23396)	0.354	0.207	-0.627
EFCAB14 (UniProt O75071)	-0.971	-1.74	0.262
CWC15 (UniProt Q9P013)	1.65	0.526	-0.193
CEP78 (UniProt Q5JTW2)	-0.104	-0.0338	-0.165
ANXA3 (UniProt P12429)	0.902	0.504	0.227
ITM2B (UniProt Q9Y287)	0.215	-0.0896	-0.251
RAB14 (UniProt P61106)	0.738	0.522	0.48
DNAJC3 (UniProt Q13217)	-4.01	-3.61	0.823
BPHL (UniProt Q86WA6)	-0.428	-0.368	-1.21
FAF1 (UniProt Q9UNN5)	0.777	0.869	0.738
UBE2A (UniProt P49459)	0.343	0.172	-0.0388
MAP2K3 (UniProt P46734)	-0.4	-0.138	0.235
SNX30 (UniProt Q5VWJ9)	-0.254	0.144	-0.275
VPRBP (UniProt Q9Y4B6)	-0.368	-0.578	0.0129
UBE2M (UniProt P61081)	0.533	0.463	-0.416
STT3A (UniProt P46977)	-2.6	-1.98	-0.218
TOR1B (UniProt O14657)	-2.23	-2.79	1.11
VPS52 (UniProt Q8N1B4)	-0.424	-0.105	-0.0774
PSMC4 (UniProt P43686)	-0.725	-0.18	-0.369
ARPC4 (UniProt P59998)	1.12	0.913	0.369

Target	thermal stability z-score (lipoamide; [1])	thermal stability z-score (lipoamide; arsenate co-treatment: none)	thermal stability z-score (potassium arsenate)
LYAR (UniProt Q9NX58)	-0.425	-0.893	-3.87
EGLN1 (UniProt Q9GZT9)	0.176	0.423	1.64
ADGRG2 (UniProt Q8IZP9)	-0.0216	0.386	-0.592
WAC (UniProt Q9BTA9)	0.192	0.112	0.126
MARS (UniProt P56192)	-1.37	-0.604	0.22
RBM12 (UniProt Q9NTZ6)	-0.205	-0.19	-0.506
MAP1LC3B2|MAP1LC3B	0.0751	0.888	0.485
TYW1 (UniProt Q9NV66)	-0.0973	0.228	1.04
TK2 (UniProt O00142)	0.341	0.589	-0.137
CLSTN1 (UniProt O94985)	-0.443	0.255	1.06
PLCL2 (UniProt Q9UPR0)	-0.2	-0.373	-0.417
AXL (UniProt P30530)	0.0102	0.0513	0.0984
EXOC3 (UniProt O60645)	-0.653	-0.0663	0.149
HAUS7 (UniProt Q99871)	0.0237	-0.0345	-0.0643
RNF40 (UniProt O75150)	0.453	0.161	0.711
DPP3 (UniProt Q9NY33)	0.77	0.569	-0.00156
WDR44 (UniProt Q5JSH3)	0.411	0.42	0.635
COPS5 (UniProt Q92905)	0.384	-0.0535	0.276
RALGPS2 (UniProt Q86X27)	-0.0453	0.191	-0.177
DNAJC15 (UniProt Q9Y5T4)	0.824	0.507	-0.793
PPP4R1 (UniProt Q8TF05)	0.26	0.0864	0.0118
PAAF1 (UniProt Q9BRP4)	-0.442	-0.906	-0.478
AKR7A2 (UniProt O43488)	0.2	-0.0291	0.581
GATAD2B (UniProt Q8WXI9)	0.511	0.315	-0.539

Target	thermal stability z-score (lipoamide; [1])	thermal stability z-score (lipoamide; arsenate co-treatment: none)	thermal stability z-score (potassium arsenate)
FADD (UniProt Q13158)	-0.805	0.901	0.325
ABCC4 (UniProt O15439)	0.622	0.731	-0.0795
ABCD1 (UniProt P33897)	-0.752	-0.422	0.118
DCAF10 (UniProt Q5QP82)	0.0128	0.566	0.0678
FDFT1 (UniProt P37268)	-0.0123	0.444	0.108
SLC25A17 (UniProt O43808)	-0.416	-0.577	-0.824
PIN4 (UniProt Q9Y237)	0.199	-0.0862	-0.422
DLST (UniProt P36957)	0.396	0.38	-5.05
RBM28 (UniProt Q9NW13)	-0.0361	-0.0267	-0.81
SNX4 (UniProt O95219)	-0.688	-0.344	0.288
EIF2B1 (UniProt Q14232)	0.317	0.317	0.364
AHNAK (UniProt Q09666)	1.35	1.69	2.03
MRPL28 (UniProt Q13084)	-0.527	-0.172	-0.154
NPR1 (UniProt P16066)	-0.594	-0.153	0.119
IFIT2 (UniProt P09913)	-0.00168	-0.0988	-0.392
CLMP (UniProt Q9H6B4)	0.616	1.03	-0.738
PDZD8 (UniProt Q8NEN9)	-0.155	0.291	0.123
PLA2G4A (UniProt P47712)	-0.308	-0.439	-0.294
CYLD (UniProt Q9NQC7)	-0.238	0.0192	0.144
THOC1 (UniProt Q96FV9)	0.298	-0.0559	-0.258
RWDD1 (UniProt Q9H446)	0.432	0.421	0.471
IDH3B (UniProt O43837)	0.075	-1.17	-1.28
RPL10A (UniProt P62906)	0.849	0.534	0.27
